Test results: US20090143457A1, “POLYCYCLIC COMPOUNDS FOR USE IN TREATING OCULAR NEURODEGENERATIVE DISEASES” (NORTHEASTERN OHIO UNIVERSITIES COLLEGE OF MEDICINE, priority 2007, published 2009)
Values joined by “and” are separate entries in the source; they are usually repeats but may differ in a detail not shown here. Equal values may be shown once.

Key:
[1] = test system: MK-801 binding site in the NMDA channel; assay: [3H]MK-801 displacement binding in homogenate in the presence of NMDA and Gly; conditions: for Hill slope value: dose-response of [3H]MK-801 binding; for displacement of [3H]MK-801: NMDA (100 μM) and Gly (100 μM), 5 nM [3H]MK-801, relative to total binding
Experimental: Now referring to FIG. 3, an example graph 300 that illustrates that at least a subset of the compounds described above have an affinity for the MK-801 binding site in the NMDA channel is presented. More particularly, some triquinylamine compounds may have an affinity for the MK-801 binding site in the NMDA channel. The triquinane-derived azatricycloundecane compounds 100, 102, 108, 116, and 118 (FIGS. 1a, 1b, 1e, 1i, and 1j, respectively) were tested for an ability to displaced labeled MK-801, and the results of such testing are shown in FIG. 3. The graph 300 also illustrates total binding of radiolabeled MK-801 (Total) and non-specific binding of unlabelled MK-801 (NS). […] Specific [^3H]MK-801 binding to the homogenate can be estimated by subtracting non-specific binding (NS) obtained in the presence of 100 μM unlabeled MK-801 from the total binding. Specific binding represented 75% of the total binding and non-specific binding only 25% of total binding at 5 nM [^3H]MK-80 1. Unlabeled MK-80 1 used to determine the non-specific binding also served as a reference compound. NMDA-stimulated displacement for each tested compound was calculated as the difference between the measured value for the labeled MK-801 in the presence of each test compound, and the total binding, although the purpose of the graph 300 represents only the non-specific binding for that particular compound. The compound 118 displaced [^3H]MK-801 by 41.09±4.1%. For the compounds 116, 108, 100, and 102, respectively, there was no statistically significant displacement of [^3H]MK-801, and displacement values were calculated to be 16.93±4.1%, 14.35±7.9%, 20.85±11.7%, and 9.28±6.17%, respectively. Statistical significance compared to total binding in a t-test is (*) p<0.05, (**) p<0.001.
Referring now to FIG. 4, an example graph 400 that illustrates dose-dependent effect of compound 118 shown in FIG. 1j on [^3H]MK-801 binding in the presence of NMDA (100 μM) and Gly (100 μM). More particularly, the graph 400 depicts results of a dose-response curve fitting that was performed to determine the IC50 value for the compound 118. […] The Hill slope values for compounds with high-affinity as NMDA antagonists (MK-801, Memantine, and NGP1-01) are near unity, with lower potency compounds having greater Hill slop values. The Hill slope value for the compound 118 was −1.157±0.052.

[2] = test system: L-type calcium channel; assay: IC50 with respect to the L-type calcium channel; format: biochemical

| Compound | Hill slope value [1] | IC50 [2] | further results |
| --- | --- | --- | --- |
| C[C@]12N[C@H](Cc3ccccc31)c1ccccc12 [MK-801, reference compound] | near unity | – | – |
| CC12CC3CC(C)(C1)CC(N)(C3)C2 [Memantine, reference compound] | near unity | – | – |
| OC12C3C4CC5C6C4C1C6C(C53)N2CCc1ccccc1 (centres unmarked) [compound 104, N-phenylethyl-4-azahexacyclo[5.4.1.0^2,6.0.0^5,9.0^8,11]dodecan-3-ol] | – | 6.8 µM | – |
| CCCCCCCN1C2C3C4CC5C6C4C2C6C1(O)C53 (centres unmarked) [compound 106, N-heptyl-4-azahexacyclo[5.4.1.0^2,6.0.0^5,9.0^8,11]dodecan-3-ol] | – | 7.5 µM | – |
| c1ccc(CCNC23OC4C5C6CC(C7C6C4C72)C53)cc1 (centres unmarked) [compound 112, 8-phenylethylamino-8,11-oxapentacyclo[5.4.0.0^2,6.0^3,10.0^5,9]undecane] | – | 36.4 µM and 36.9 µM | – |
| c1ccc(CNC23OC4C5C6CC(C7C6C4C72)C53)cc1 (centres unmarked) [compound 120, 8-benzylamino-8,11-oxapentacyclo[5.4.0.0^2,6.0^3,10.0^5,9]undecane] | near unity | 60 µM | – |
| CCCCCCCN1CCC2CC3CCCC3C21 (centres unmarked) [compound 122, N-heptyl-3,1-azatricyclo[6.3.0.0^2,6]undecane] | – | 55 µM | – |
| N-(pyridin-4-ylmethyl)-3,11-azatricyclo[6.3.0.0^2,6]undecane [compound 102] | – | 4.9 µM | displacement of [3H]MK-801 [1]: 9.28±6.17% |
| N-benzyl-3,11-azatricyclo[6.3.0.0^2,6]undecane [compound 118] | −1.157±0.052 | – | displacement of [3H]MK-801 [1]: 41.09±4.1%; affinity for the NMDAR (comparison among triquinane-derived compounds) ([1]; among compounds 100, 102, 108, 116 and 118): highest affinity; IC50 ([1]; in the presence of NMDA (100 μM) and Gly (100 μM), dose-response curve fitting): 1.93 ± 0.018 µM |
| N-benzyl-4-azahexacyclo[5.4.1.0^2,6.0.0^5,9.0^8,11]dodecan-3-ol [compound 110] | – | 32.9 µM | – |
| N-cyclohexylmethyl-3,11-azatricyclo[6.3.0.0^2,6]undecane [compound 116] | – | 46 µM and 53 µM | displacement of [3H]MK-801 [1]: 16.93±4.1% |
